Assay results reported in ChEMBL document CHEMBL1201862, “PubChem BioAssay data set” (2004).
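96-well plates; 48 h exposure; 5 concentrations. Endpoints by linear interpolation between flanking doses. Not reached: highest tested concentration assigned. GI50 is the concentration that inhibits growth by half.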 Calls of active or inactive are those of the source. Rule as the data show it: active = GI50 up to about 1.1 µM and inactive = higher.

Experiments:
Assay in all cases: inhibition of tumour cell growth, NCI panel, 48 h
LOX IMVI = test system: LOX IMVI
MDA-MB-435 = test system: MDA-MB-435
HCT-15 = test system: HCT-15
UO-31 = test system: UO-31
OVCAR-5 = test system: OVCAR-5
U-251 = test system: U-251
DU-145 = test system: DU-145
CAKI-1 = test system: CAKI-1
NCI-H522 = test system: NCI-H522
HT-29 = test system: HT-29
Malme-3M = test system: Malme-3M
UACC-62 = test system: UACC-62
SK-MEL-5 = test system: SK-MEL-5
CCRF-CEM = test system: CCRF-CEM
MDA-N = test system: MDA-N
A498 = test system: A498
SN12C = test system: SN12C
SK-MEL-28 = test system: SK-MEL-28
SF-539 = test system: SF-539
KM12 = test system: KM12

SMILES	GI50 (LOX IMVI)	GI50 (MDA-MB-435)	GI50 (HCT-15) [nM]	GI50 (UO-31)	GI50 (OVCAR-5)	GI50 (U-251)	GI50 (DU-145)	GI50 (CAKI-1)	GI50 (NCI-H522)	GI50 (HT-29)	GI50 (Malme-3M)	GI50 (UACC-62)	GI50 (SK-MEL-5)	GI50 (CCRF-CEM)	GI50 (MDA-N)	GI50 (A498)	GI50 (SN12C)	GI50 (SK-MEL-28)	GI50 (SF-539)	GI50 (KM12)
S=P(N1CC1)(N1CC1)N1CC1 [THIOTEPA]	39.6 µM (inactive)	158 µM (inactive)	149000	97.9 µM (inactive)	147 µM (inactive)	58.7 µM (inactive)	32.1 µM (inactive)	30.3 µM (inactive)	101 µM (inactive)	159000 nM (inactive)	141 µM (inactive)	14.7 µM (inactive)	97.9 µM (inactive)	9.46 µM (inactive)	161 µM (inactive)	126 µM (inactive)	35.5 µM (inactive)	186 µM (inactive)	37.7 µM (inactive)	171 µM (inactive)
Cc1ccccc1C1=C/C(=C(\SS/C(C(=O)c2ccc(OCC(=O)O)c(Cl)c2Cl)=C2\C=C(c3ccccc3C)SS2)C(=O)c2ccc(OCC(=O)O)c(Cl)c2Cl)SS1	6.82 µM (inactive)	36.1 µM (inactive)	24000	20.9 µM (inactive)	51.1 µM (inactive)	8.43 µM (inactive)	39.4 µM (inactive)	37.6 µM (inactive)	4.09 µM (inactive)	33100 nM (inactive)	40.1 µM (inactive)	18 µM (inactive)	26.3 µM (inactive)	12.5 µM (inactive)	34.1 µM (inactive)	32.4 µM (inactive)	20.1 µM (inactive)	26.4 µM (inactive)	17.2 µM (inactive)	22.3 µM (inactive)
CC1(C)N=C(N)N=C(N)N1CCCCc1ccccc1	0.149 µM (active)	0.155 µM (active)	2920	64.3 µM (inactive)	1.99 µM (inactive)	0.209 µM (active)	3.57 µM (inactive)	7.94 µM (inactive)	0.708 µM (active)	124 nM (active)	0.282 µM (active)	0.453 µM (active)	0.59 µM (active)	0.483 µM (active)	0.046 µM (active)	2.08 µM (inactive)	0.82 µM (active)	8.59 µM (inactive)	0.34 µM (active)	0.689 µM (active)
O=C1C(Cl)=C(Nc2ccc(OC(F)(F)F)cc2)C(=O)c2c(O)ccc(O)c21	0.262 µM (active)	0.873 µM (active)	366	0.561 µM (active)	1.76 µM (inactive)	0.726 µM (active)	0.705 µM (active)	1.6 µM (inactive)	0.571 µM (active)	385 nM (active)	1.01 µM (active)	0.975 µM (active)	2.11 µM (inactive)	0.377 µM (active)	2.22 µM (inactive)	3.87 µM (inactive)	0.468 µM (active)	0.762 µM (active)	1.73 µM (inactive)	1.5 µM (inactive)
COc1ccc(/C=C2\C[C@H]3[C@@H]4CCC5=C[C@@H](N6CCCC6)CC[C@]5(C)[C@H]4CC[C@]3(C)[C@H]2O)cc1	1.78 µM (inactive)	1.93 µM (inactive)	1400	1.72 µM (inactive)	4.81 µM (inactive)	2.77 µM (inactive)	4.91 µM (inactive)	3.52 µM (inactive)	2.53 µM (inactive)	728 nM (active)	2.61 µM (inactive)	1.78 µM (inactive)	1.55 µM (inactive)		1.57 µM (inactive)	1.61 µM (inactive)	4.8 µM (inactive)	1.87 µM (inactive)	2.15 µM (inactive)	2.34 µM (inactive)
COC12OC3CC4(C)C(=CC3OC(OC(C)C1O)C2O)CCC1C4CCC2(C)C(c3ccc(=O)oc3)CCC12O (stereo not drawn)	0.00137 µM (active)	0.00216 µM (active)	2.16	0.0017 µM (active)	0.00132 µM (active)	0.00142 µM (active)	0.00129 µM (active)	0.00147 µM (active)	< 0.001 µM (active)	1.39 nM (active)	0.00168 µM (active)	0.00233 µM (active)	< 0.001 µM (active)	0.00125 µM (active)	0.00215 µM (active)	0.00309 µM (active)	< 0.001 µM (active)	0.00385 µM (active)	0.00126 µM (active)	0.00247 µM (active)
O=C1CCCC1C(=O)Nc1ccc2ccccc2c1 (stereo not drawn)	> 100 µM (inactive)	> 100 µM (inactive)	> 100000	> 100 µM (inactive)	> 100 µM (inactive)	> 100 µM (inactive)	> 100 µM (inactive)	> 100 µM (inactive)	49 µM (inactive)	55700 nM (inactive)	> 100 µM (inactive)	> 100 µM (inactive)	> 100 µM (inactive)	57 µM (inactive)	> 100 µM (inactive)	> 100 µM (inactive)	> 100 µM (inactive)	> 100 µM (inactive)		84.9 µM (inactive)
